# Measured values published in article PMC7259601 (PLoS ONE, 2020).
# What was measured:
# MAO-A = molecular target: T1, MAO-A (Mus musculus, UniProt Q64133); assay: L-5-HTP-induced symptoms test; assay type: in vivo, CD1 mice
# T1 construct: from tissue; host or cells: mouse brain (homogenate ex vivo; living animal in the L-5-HTP test)
# T1 sequence (Q64133 1-526): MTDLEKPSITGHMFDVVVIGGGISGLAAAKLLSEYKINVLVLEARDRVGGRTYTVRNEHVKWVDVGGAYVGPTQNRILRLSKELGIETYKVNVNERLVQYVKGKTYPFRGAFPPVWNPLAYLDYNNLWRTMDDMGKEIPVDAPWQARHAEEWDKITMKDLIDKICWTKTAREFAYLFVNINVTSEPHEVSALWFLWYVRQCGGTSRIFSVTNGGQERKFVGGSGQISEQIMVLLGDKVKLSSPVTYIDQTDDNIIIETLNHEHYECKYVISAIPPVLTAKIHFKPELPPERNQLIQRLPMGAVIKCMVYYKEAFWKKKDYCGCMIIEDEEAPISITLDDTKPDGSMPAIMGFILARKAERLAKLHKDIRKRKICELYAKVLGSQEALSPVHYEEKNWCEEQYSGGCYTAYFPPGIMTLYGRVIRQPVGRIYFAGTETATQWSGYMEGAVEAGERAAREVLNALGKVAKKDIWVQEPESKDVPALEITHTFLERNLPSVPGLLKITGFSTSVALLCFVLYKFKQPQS
# Protocol: Male C57BL/6 mice (8 weeks of age, 25-30 g) procured from Harlan Interfauna Iberica were housed in the same condition that in MAO-B PEA section. This test was performed essentially as previously described. Test compound was administered p.o. at several dose levels to groups of mice (N = 10/dose) 60 min before an i.p. injection of L-5-HTP (100 mg/kg). This dose of 5-L-HTP produced no effects in control animals. […] Studies were performed in accordance with the institutional guidelines for the care and use of laboratory animals (European Communities Council Directive 86/609/EEC) established by the Ethical Committee for Animal Experimentation at the PRAAL-PCB.
# This test was performed essentially as previously described [90](Koe et al., 1983). Test compound was administered p.o. at several dose levels 60 min before an i.p. injection of L-5-HTP. […] One score assigned to each symptom observed per animal, giving a maximal obtainable score of 30 per group of 10 mice.
# Behavior was rated as outline above.
# MAO-B [1] = molecular target: MAO-B (Mus musculus, UniProt Q8BW75); settings: p.o. gavage, followed by 25 mg/kg PEA
# MAO-B (Mus musculus, UniProt Q8BW75), sequence (Q8BW75 whole entry): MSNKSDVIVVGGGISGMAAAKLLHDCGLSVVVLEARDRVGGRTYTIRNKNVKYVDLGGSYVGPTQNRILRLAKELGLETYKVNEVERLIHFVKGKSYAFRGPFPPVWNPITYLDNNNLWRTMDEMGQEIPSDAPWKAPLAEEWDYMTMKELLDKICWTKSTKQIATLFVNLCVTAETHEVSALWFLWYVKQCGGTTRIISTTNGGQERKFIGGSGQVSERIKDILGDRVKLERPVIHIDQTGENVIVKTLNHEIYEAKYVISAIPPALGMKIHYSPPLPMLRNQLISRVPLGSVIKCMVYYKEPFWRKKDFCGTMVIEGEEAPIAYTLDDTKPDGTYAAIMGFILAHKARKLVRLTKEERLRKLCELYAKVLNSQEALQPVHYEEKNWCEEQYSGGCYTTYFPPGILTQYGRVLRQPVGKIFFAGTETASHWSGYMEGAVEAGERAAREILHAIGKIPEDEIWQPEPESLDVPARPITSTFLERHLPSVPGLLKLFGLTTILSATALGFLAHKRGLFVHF
# SETD1 +/- mice = system: SETD1 +/- mice; set-up: method as in PMID 31606247; settings: cited from earlier work
# brain MAO-B = molecular target: T2, brain MAO-B (Mus musculus, UniProt Q8BW75); assay: MPTP neurotoxicity model; assay type: in vivo, C57BL/6 mice; settings: i.p. 3 mg/kg
# T2 construct: from tissue; host or cells: mouse brain (homogenate ex vivo; living animal in the MPTP and PEA tests)
# T2 sequence (Q8BW75 whole entry): as above
# MAO-B [2] = settings: 3 mg/kg/day; cited from earlier work
# SAMP8 mice = assay: Novel Object Recognition Test (NORT); assay type: in vivo, mouse; settings: 3 mg/kg/day (Exp4), p = 0.12
# Protocol: Both male and female mice from the senescence accelerated strain SAMP8 and its control SAMR1 of different ages (see Table S3 for details) were used in these studies. Mice were breed in the animal facilities of the Pharmacy Faculty (University of Barcelona), maintained in a at 22 ± 2 °C controlled temperature in a 12 hr light / dark cycle (lights on at 8:00 am; 300 lux/0 lux) with ad libitum access to food (2018 TEKLAD, Harlan) and water. Male mice were housed individually (males) or in groups of 4-5 animals (females) in plastic colony boxes with a sawdust bedding material. […] SAMR1 mice treated with vehicle were included as a control. All drugs were administered via drinking water and diluted in vehicle. Drug concentration was calculated weekly in function of body weight and corrected in function of drinking water consumption. Cognitive function was evaluated by NORT, social behavior was evaluated by RI and anxiety and motor function were evaluated by EPM and OF. When necessary, animals were deeply anesthetized (80 mg/kg sodium pentobarbital) and brain samples (hippocampus, (prefrontal) cortex) were micro-dissected and processed according to the downstream analysis.
# The protocol was performed as previously described. Briefly, animals were placed in a 90°- two-arm maze. Mice were habituated to the apparatus for 10 min during 3 consecutive days. On day 4, two identical novel objects (A+A or B+B) were placed at the end of each arm and animals performed a 10-min acquisition trial. A 10-min retention trial was carried out 2 hr after the acquisition trial with object A and B. Time exploring the novel (NO) and the familiar object (FO) was measured and a discrimination Index (DI) was defined as (NO-FO)/(NO+FO). In some experiments, a more restrictive threshold was applied and animals exploring less than 5 sec (NO+FO) were excluded from the analysis (Table S3).
# Novel Object Recognition Test (NORT): Time exploring the novel (NO) and the familiar object (FO) was measured and a discrimination Index (DI) was defined as (NO-FO)/(NO+FO). In some experiments, a more restrictive threshold was applied and animals exploring less that 5 sec (NO+FO) were excluded from the analysis (Table S3). Open Field (OF): Locomotor activity was analyzed by video-tracking over the captured images using SMART® (v 2.5.21 (rat) or v3.0 (mice), PanLab, SLU, Spain).
# KDM1A-E8a KO mice = system: KDM1A-E8a KO mice; set-up: method as in PMID 26976584; settings: cited from earlier work
# [3] = system: NMDA receptor NR1 subunit hypofunction mice; set-up: method as in PMID 30580376; settings: cited from earlier work
structure (smiles),measurement,setting,value
"N[C@@H]1C[C@H]1c1ccccc1 (racemic) [TCP, tranylcypromine]",ED50 potentiation of L-5-HTP-induced symptoms,"MAO-A; p.o. gavage, followed by 100 mg/kg L-5-HTP i.p.",1.4 mg/kg
same,ED50 potentiation of PEA-induced symptoms,MAO-B [1],1.1 mg/kg
N[C@H]1CC[C@H](N[C@@H]2C[C@H]2c2ccccc2)CC1 [Iadademstat],cortical synaptic plasticity deficit and working memory,SETD1 +/- mice,reversed cortical synaptic plasticity deficit and the working memory
"C#CCN[C@@H]1CCc2ccccc21 [RSG, rasagiline]",protection against the MPTP insult,brain MAO-B,full protection
same,MAO-B inhibition at the dose used,MAO-B [2],complete MAO-B inhibition
same,NORT discrimination capacity,SAMP8 mice,tendency for improvement without reaching significance
O=C(CCCCCCC(=O)Nc1ccccc1)NO [SAHA],deficient stress response and low anxiety phenotype,KDM1A-E8a KO mice,rescued
"C#CCN(C)[C@H](C)Cc1ccccc1 [SLG, selegiline]",ED50,"MAO-A; mouse, read-out: ED50 potentiation of L-5-HTP-induced symptoms",42.2 mg/kg
Cc1nnc(NC(=O)c2cccc([C@@H]3C[C@H]3NC3CCC3)c2)s1 [T-448],learning function,[3],improved the learning function
